What all share (test): SelectScreen Kinase Profiling, single point inhibition and IC50 for off-target kinases
Type in all cases: biochemical

Assay [1] addresses T1, off-target kinases (Homo sapiens, UniProt Q05513).
T1 sequence (Q05513 1-592): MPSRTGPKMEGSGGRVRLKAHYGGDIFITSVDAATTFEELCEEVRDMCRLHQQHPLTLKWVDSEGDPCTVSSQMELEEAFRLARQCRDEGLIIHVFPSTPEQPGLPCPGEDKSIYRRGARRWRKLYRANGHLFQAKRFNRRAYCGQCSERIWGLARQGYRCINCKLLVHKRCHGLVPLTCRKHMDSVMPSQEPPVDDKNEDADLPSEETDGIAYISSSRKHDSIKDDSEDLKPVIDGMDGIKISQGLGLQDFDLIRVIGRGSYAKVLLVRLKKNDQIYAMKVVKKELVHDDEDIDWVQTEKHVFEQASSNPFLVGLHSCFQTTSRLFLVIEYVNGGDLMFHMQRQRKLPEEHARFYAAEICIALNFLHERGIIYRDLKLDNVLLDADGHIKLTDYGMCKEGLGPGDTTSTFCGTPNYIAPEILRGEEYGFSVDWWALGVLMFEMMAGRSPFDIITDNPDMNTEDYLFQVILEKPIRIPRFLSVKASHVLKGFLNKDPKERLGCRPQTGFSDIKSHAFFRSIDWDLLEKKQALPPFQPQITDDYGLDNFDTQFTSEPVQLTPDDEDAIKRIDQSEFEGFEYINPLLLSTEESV
As to conditions: PRKCZ (PKC zeta); Cmpd1 1000 μM; ATP Km app; ZLYTE.

The target of assay [2] is off-target kinases (Homo sapiens, UniProt P49759). As to conditions: CLK1, ZLYTE, ATP Km app.
Sequence of off-target kinases (Homo sapiens, UniProt P49759) (P49759 whole entry): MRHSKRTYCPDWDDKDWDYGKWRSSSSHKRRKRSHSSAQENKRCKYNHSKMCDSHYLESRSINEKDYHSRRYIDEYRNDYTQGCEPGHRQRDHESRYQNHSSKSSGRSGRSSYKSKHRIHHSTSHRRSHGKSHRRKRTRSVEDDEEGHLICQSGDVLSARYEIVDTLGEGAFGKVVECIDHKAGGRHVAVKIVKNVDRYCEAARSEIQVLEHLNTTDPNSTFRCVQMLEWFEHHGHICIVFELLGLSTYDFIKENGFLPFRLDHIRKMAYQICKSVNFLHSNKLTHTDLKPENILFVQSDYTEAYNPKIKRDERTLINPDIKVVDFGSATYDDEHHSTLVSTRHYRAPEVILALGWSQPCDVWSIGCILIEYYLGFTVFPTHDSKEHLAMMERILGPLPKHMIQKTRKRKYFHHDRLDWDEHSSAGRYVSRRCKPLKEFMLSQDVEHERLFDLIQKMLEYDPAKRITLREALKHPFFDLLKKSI
Assay [3] deals with T2, off-target kinases (Homo sapiens, UniProt P25098).
T2 sequence (P25098 1-689): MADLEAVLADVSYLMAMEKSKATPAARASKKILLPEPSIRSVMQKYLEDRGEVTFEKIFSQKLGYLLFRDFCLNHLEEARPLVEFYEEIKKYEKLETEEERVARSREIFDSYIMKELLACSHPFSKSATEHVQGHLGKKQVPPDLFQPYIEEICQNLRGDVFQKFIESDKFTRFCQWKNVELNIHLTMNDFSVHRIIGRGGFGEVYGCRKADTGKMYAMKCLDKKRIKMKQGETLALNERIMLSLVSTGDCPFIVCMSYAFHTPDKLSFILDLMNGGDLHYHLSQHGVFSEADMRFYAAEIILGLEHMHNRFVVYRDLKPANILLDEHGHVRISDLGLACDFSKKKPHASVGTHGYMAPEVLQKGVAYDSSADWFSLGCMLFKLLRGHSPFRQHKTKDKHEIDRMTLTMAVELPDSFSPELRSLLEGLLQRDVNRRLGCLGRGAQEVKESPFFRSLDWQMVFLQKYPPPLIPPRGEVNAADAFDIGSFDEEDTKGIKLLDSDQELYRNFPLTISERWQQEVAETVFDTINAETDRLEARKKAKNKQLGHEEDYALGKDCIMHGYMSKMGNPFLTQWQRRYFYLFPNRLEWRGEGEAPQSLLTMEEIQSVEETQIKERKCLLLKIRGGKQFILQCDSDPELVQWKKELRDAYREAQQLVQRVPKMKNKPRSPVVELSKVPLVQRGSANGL
The following applies: ADRBK1 (GRK2), ZLYTE, ATP Km app.

Assay [4] has as its target off-target kinases (Homo sapiens, UniProt P51617). The following applies: IRAK1, ATP Km app, Adapta.

Read-outs that look alike come from different tables or passages of the source.

Sequence of off-target kinases (Homo sapiens, UniProt P51617) (P51617 whole entry): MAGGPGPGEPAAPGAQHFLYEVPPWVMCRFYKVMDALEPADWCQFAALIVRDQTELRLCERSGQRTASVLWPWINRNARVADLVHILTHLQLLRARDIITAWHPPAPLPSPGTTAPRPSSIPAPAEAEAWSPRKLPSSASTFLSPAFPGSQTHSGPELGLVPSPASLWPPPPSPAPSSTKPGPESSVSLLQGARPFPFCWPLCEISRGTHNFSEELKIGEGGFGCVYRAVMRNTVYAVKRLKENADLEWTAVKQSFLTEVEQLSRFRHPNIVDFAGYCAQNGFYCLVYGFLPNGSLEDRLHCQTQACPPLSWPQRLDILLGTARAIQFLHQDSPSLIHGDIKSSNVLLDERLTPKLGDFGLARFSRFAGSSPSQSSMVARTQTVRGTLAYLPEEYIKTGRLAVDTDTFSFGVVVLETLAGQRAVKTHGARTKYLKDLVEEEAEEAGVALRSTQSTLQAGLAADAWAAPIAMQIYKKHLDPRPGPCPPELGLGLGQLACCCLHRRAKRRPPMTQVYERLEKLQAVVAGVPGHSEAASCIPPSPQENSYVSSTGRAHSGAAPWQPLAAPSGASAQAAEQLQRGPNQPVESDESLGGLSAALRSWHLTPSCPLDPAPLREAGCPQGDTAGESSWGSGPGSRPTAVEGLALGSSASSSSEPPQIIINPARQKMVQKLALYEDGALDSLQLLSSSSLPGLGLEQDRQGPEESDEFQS

One may read the inhibition as the change of the read-out against control, counted positive when it falls. In the case of `N#Cc1cc(-c2ncnc(Nc3ccc(N4CCN(C5COC5)CC4)cc3)n2)ccc1OC1CCOCC1` [Compound 1, 5-(4-((4-(4-(oxetan-3-yl)piperazin-1-yl)phenyl)amino)-1,3,5-triazin-2-yl)-2-((tetrahydro-2H-pyran-4-yl)oxy)benzonitrile], on off-target kinases [1], the “% Inhibition 1” value is listed as −18%. The “% Inhibition 2” value on off-target kinases [1] is −16%. Besides, the “% Inhibition Avg” value at off-target kinases [1] is listed as −17%. In addition, the inhibition on off-target kinases [2] (read-out: % Inhibition 1) is 33%; on off-target kinases [2] (read-out: % Inhibition 2), 34%; on off-target kinases [2] (read-out: % Inhibition Avg), 33%; at off-target kinases [3] (read-out: % Inhibition 1), 3%; at off-target kinases [3] (read-out: % Inhibition 2), 7%; at off-target kinases [3] (read-out: % Inhibition Avg), 5%. Further, the figures for the inhibition at off-target kinases [4] (read-out: % Inhibition 1), on off-target kinases [4] (read-out: % Inhibition 2) and at off-target kinases [4] (read-out: % Inhibition Avg) were 94%, 96% and 95%, respectively.

The values above are taken from US11572590B2, “Methods for evaluating tumor cell spheroids using 3D microfluidic cell culture device” (Dana-Farber Cancer Institute, Inc., priority 2017, dated 2023).
